We go through eleven compounds from BindingDB's records for doi:10.1016/s0960-894x(99)00336-4 (Merck Research Laboratories, 1999).

The assay in a line: Inhibitory activity against Calcineurin (CaN phosphatase).

Take `CC[C@@H]1/C=C(\C)C[C@H](C)C[C@H](OC)[C@H]2O[C@@](O)(C(=O)C(=O)N3CCCC[C@H]3C(=O)O[C@H](/C(C)=C/C3CC[C@@H](OC[C@@H](O)c4ccc(F)c(F)c4)[C@H](OC)C3)[C@H](C)[C@H](O)CC1=O)[C@H](C)C[C@@H]2OC` (stereo partly specified) [12-(2-{4-[2-(3,4-Difluoro-phenyl)-2-hydroxy-ethoxy]-3-methoxy-cyclohexyl}-1-methyl-vinyl)-17-ethyl-1,14-dihydroxy-23,25-dimethoxy-13,19,21,27-tetramethyl-11,28-dioxa-4-aza-tricyclo[22.3.1.0*4,9*]octacos-18-ene-2,3,10,16-tetraone]: the IC50 (as a rule, the concentration that inhibits the measured activity by half) came out at 7.3 nM. In the case of `CC[C@@H]1/C=C(\C)C[C@H](C)C[C@H](OC)[C@H]2O[C@@](O)(C(=O)C(=O)N3CCCC[C@H]3C(=O)O[C@H](/C(C)=C/C3CC[C@@H](OC[C@H](O)c4ccc(F)c(F)c4)[C@H](OC)C3)[C@H](C)[C@H](O)CC1=O)[C@H](C)C[C@@H]2OC` (stereo partly specified) [12-(2-{4-[2-(3,4-Difluoro-phenyl)-2-hydroxy-ethoxy]-3-methoxy-cyclohexyl}-1-methyl-vinyl)-17-ethyl-1,14-dihydroxy-23,25-dimethoxy-13,19,21,27-tetramethyl-11,28-dioxa-4-aza-tricyclo[22.3.1.0*4,9*]octacos-18-ene-2,3,10,16-tetraone], the IC50 was 8.7 nM. Under `CC[C@@H]1/C=C(\C)C[C@H](C)C[C@H](OC)[C@H]2O[C@@](O)(C(=O)C(=O)N3CCCC[C@H]3C(=O)O[C@H](/C(C)=C/C3CC[C@@H](OC[C@@H](O)c4cc(C)cc(C)c4)[C@H](OC)C3)[C@H](C)[C@H](O)CC1=O)[C@H](C)C[C@@H]2OC` (stereo partly specified) [12-(2-{4-[2-(3,5-Dimethyl-phenyl)-2-hydroxy-ethoxy]-3-methoxy-cyclohexyl}-1-methyl-vinyl)-17-ethyl-1,14-dihydroxy-23,25-dimethoxy-13,19,21,27-tetramethyl-11,28-dioxa-4-aza-tricyclo[22.3.1.0*4,9*]octacos-18-ene-2,3,10,16-tetraone] stands 7.9 nM; under `CC[C@@H]1/C=C(\C)C[C@H](C)C[C@H](OC)[C@H]2O[C@@](O)(C(=O)C(=O)N3CCCC[C@H]3C(=O)O[C@H](/C(C)=C/C3CC[C@@H](OC[C@H](O)c4cc(C)cc(C)c4)[C@H](OC)C3)[C@H](C)[C@H](O)CC1=O)[C@H](C)C[C@@H]2OC` (stereo partly specified) [12-(2-{4-[2-(3,5-Dimethyl-phenyl)-2-hydroxy-ethoxy]-3-methoxy-cyclohexyl}-1-methyl-vinyl)-17-ethyl-1,14-dihydroxy-23,25-dimethoxy-13,19,21,27-tetramethyl-11,28-dioxa-4-aza-tricyclo[22.3.1.0*4,9*]octacos-18-ene-2,3,10,16-tetraone], 8.7 nM.

As for `CC[C@@H]1/C=C(\C)C[C@H](C)C[C@H](OC)[C@H]2O[C@@](O)(C(=O)C(=O)N3CCCC[C@H]3C(=O)O[C@H](/C(C)=C/C3CC[C@@H](OC[C@@H](O)c4cc5ccccc5s4)[C@H](OC)C3)[C@H](C)[C@H](O)CC1=O)[C@H](C)C[C@@H]2OC` (stereo partly specified) [12-{2-[4-(2-Benzo[b]thiophen-2-yl-2-hydroxy-ethoxy)-3-methoxy-cyclohexyl]-1-methyl-vinyl}-17-ethyl-1,14-dihydroxy-23,25-dimethoxy-13,19,21,27-tetramethyl-11,28-dioxa-4-aza-tricyclo[22.3.1.0*4,9*]octacos-18-ene-2,3,10,16-tetraone], the IC50 was 4 nM. Under `CC[C@@H]1/C=C(\C)C[C@H](C)C[C@H](OC)[C@H]2O[C@@](O)(C(=O)C(=O)N3CCCC[C@H]3C(=O)O[C@H](/C(C)=C/C3CC[C@@H](OC[C@H](O)c4cc5ccccc5s4)[C@H](OC)C3)[C@H](C)[C@H](O)CC1=O)[C@H](C)C[C@@H]2OC` (stereo partly specified) [12-{2-[4-(2-Benzo[b]thiophen-2-yl-2-hydroxy-ethoxy)-3-methoxy-cyclohexyl]-1-methyl-vinyl}-17-ethyl-1,14-dihydroxy-23,25-dimethoxy-13,19,21,27-tetramethyl-11,28-dioxa-4-aza-tricyclo[22.3.1.0*4,9*]octacos-18-ene-2,3,10,16-tetraone] stands 4.2 nM; under `CC[C@@H]1/C=C(\C)C[C@H](C)C[C@H](OC)[C@H]2O[C@@](O)(C(=O)C(=O)N3CCCC[C@H]3C(=O)O[C@H](/C(C)=C/C3CC[C@@H](OC[C@@H](O)c4cccc(C(F)(F)F)c4)[C@H](OC)C3)[C@H](C)[C@H](O)CC1=O)[C@H](C)C[C@@H]2OC` (stereo partly specified) [17-Ethyl-1,14-dihydroxy-12-(2-{4-[2-hydroxy-2-(3-trifluoromethyl-phenyl)-ethoxy]-3-methoxy-cyclohexyl}-1-methyl-vinyl)-23,25-dimethoxy-13,19,21,27-tetramethyl-11,28-dioxa-4-aza-tricyclo[22.3.1.0*4,9*]octacos-18-ene-2,3,10,16-tetraone], 4.9 nM; under `CC[C@@H]1/C=C(\C)C[C@H](C)C[C@H](OC)[C@H]2O[C@@](O)(C(=O)C(=O)N3CCCC[C@H]3C(=O)O[C@H](/C(C)=C/C3CC[C@@H](OC[C@H](O)c4cccc(C(F)(F)F)c4)[C@H](OC)C3)[C@H](C)[C@H](O)CC1=O)[C@H](C)C[C@@H]2OC` (stereo partly specified) [17-Ethyl-1,14-dihydroxy-12-(2-{4-[2-hydroxy-2-(3-trifluoromethyl-phenyl)-ethoxy]-3-methoxy-cyclohexyl}-1-methyl-vinyl)-23,25-dimethoxy-13,19,21,27-tetramethyl-11,28-dioxa-4-aza-tricyclo[22.3.1.0*4,9*]octacos-18-ene-2,3,10,16-tetraone], 5.9 nM.

With `CC[C@@H]1/C=C(\C)C[C@H](C)C[C@H](OC)[C@H]2O[C@@](O)(C(=O)C(=O)N3CCCC[C@H]3C(=O)O[C@H](/C(C)=C/C3CC[C@@H](OC[C@@H](O)c4ccc5ccccc5c4)[C@H](OC)C3)[C@H](C)[C@H](O)CC1=O)[C@H](C)C[C@@H]2OC` (stereo partly specified) [17-Ethyl-1,14-dihydroxy-12-{2-[4-(2-hydroxy-2-naphthalen-2-yl-ethoxy)-3-methoxy-cyclohexyl]-1-methyl-vinyl}-23,25-dimethoxy-13,19,21,27-tetramethyl-11,28-dioxa-4-aza-tricyclo[22.3.1.0*4,9*]octacos-18-ene-2,3,10,16-tetraone], the IC50 stood at 2.8 nM. Under `CC[C@@H]1/C=C(\C)C[C@H](C)C[C@H](OC)[C@H]2O[C@@](O)(C(=O)C(=O)N3CCCC[C@H]3C(=O)O[C@H](/C(C)=C/C3CC[C@@H](OC[C@H](O)c4ccc5ccccc5c4)[C@H](OC)C3)[C@H](C)[C@H](O)CC1=O)[C@H](C)C[C@@H]2OC` (stereo partly specified) [17-Ethyl-1,14-dihydroxy-12-{2-[4-(2-hydroxy-2-naphthalen-2-yl-ethoxy)-3-methoxy-cyclohexyl]-1-methyl-vinyl}-23,25-dimethoxy-13,19,21,27-tetramethyl-11,28-dioxa-4-aza-tricyclo[22.3.1.0*4,9*]octacos-18-ene-2,3,10,16-tetraone] stands 7.3 nM; under `C=CC[C@@H]1/C=C(\C)C[C@H](C)C[C@H](OC)[C@H]2O[C@@](O)(C(=O)C(=O)N3CCCC[C@H]3C(=O)O[C@H](/C(C)=C/[C@@H]3CC[C@@H](O)[C@H](OC)C3)[C@H](C)[C@@H](O)CC1=O)[C@H](C)C[C@@H]2OC` [(E)-(1R,9S,12S,13R,14R,21S,23S,24R,25S,27R)-17-Allyl-1,14-dihydroxy-12-[(E)-2-((3R,4R)-4-hydroxy-3-methoxy-cyclohexyl)-1-methyl-vinyl]-23,25-dimethoxy-13,19,21,27-tetramethyl-11,28-dioxa-4-aza-tricyclo[22.3.1.0*4,9*]octacos-18-ene-2,3,10,16-tetraone], 15 nM.
